Data: PMC5548701, “Selective targeting of melanoma using N-(2-diethylaminoethyl) 4-[^18F]fluoroethoxy benzamide (4-[^18F]FEBZA): a novel PET imaging probe” (EJNMMI Research, 2017)
“Also recorded” adds a separate entry of the source.

Experiments:
B16F1 melanoma cells = assay: in vitro cell binding, influence of incubation time and temperature; assay type: cell-based, murine; conditions: 2.5 × 10^5 cells/well, percent of total radioactivity added
Experimental: The in vitro cell binding was assessed by growing B16F1 cells in culture flasks to 80–90% confluence, trypsinizing, washing in PBS (pH 7.4), aliquoting into 12-well plates and allowing adherence to the wells overnight. Initially, we studied the influence of the incubation time and temperature on the binding to B16F1 melanoma cells. For this study, 12-well plates containing ~2.5 × 10^5 cells/well were incubated at 0, 22, and 37 °C with 4-[^18F]FEBZA in quadruplicate sets for 15, 30, 60, 120, and 180 min. After the incubation, the media were removed, and each well was washed with fresh ice-cold media (2 × 2 mL). The adherent cells were removed by lysing cells in 500 μL of PBS containing 10% Triton X-100 (Sigma-Aldrich, St. Louis, MO). The combined washes and lysate were analyzed for radioactivity content using a γ-counter.

HT-29 tumor = assay: microPET imaging in mouse bearing HT-29 tumor; assay type: in vivo, mice
Experimental: (§1) In vivo imaging of 4-[^18F]FEBZA in mice bearing B16F1 (n = 2) and HT-29 (n = 1) tumor was performed using a P4 microPET™ scanner (Concorde Microsystems, Inc., Knoxville, TN). After administering ~100 μCi of 4-[^18F]FEBZA via tail-vein injection, whole body PET scans were acquired in list mode. The images were reconstructed using filtered back projection with attenuation correction. Regions Of Interest (ROIs) were drawn on select organs using the summed image from the entire scan acquisition session, and the data were analyzed using ASIPro software (Siemens Preclinical Solutions, Knoxville, TN). The time activity curves (TACs) were generated from the list mode data reconstructed into multiple 5-min frames.

[1] = tested on: HT-29 human colorectal adenocarcinoma tumor xenografts; assay: biodistribution in mice bearing HT-29 tumor xenografts; assay type: in vivo, athymic nu/nu mice; conditions: for tumor-to-brain tissue ratio: HT-29 group; for Adrenals %IA/g tissue (mean ± SD) / Blood %IA/g tissue (mean ± SD) / Bone %IA/g tissue (mean ± SD) / Brain %IA/g tissue (mean ± SD) / Heart %IA/g tissue (mean ± SD) / Kidneys %IA/g tissue (mean ± SD) / Liver %IA/g tissue (mean ± SD) / Lung %IA/g tissue (mean ± SD) / Muscles %IA/g tissue (mean ± SD) / Pancreas %IA/g tissue (mean ± SD) / Sm. Intestine %IA/g tissue (mean ± SD) / Spleen %IA/g tissue (mean ± SD): HT-29 tumor mice; for Tumor %IA/g tissue (mean ± SD): HT-29 tumor
Experimental: B16F1 melanoma cells, HT-29 human colorectal adenocarcinoma cells, and C-32 amelanotic melanoma cells were purchased from the American Type Culture Collection (ATCC, Rockville, MD). B16F1 murine melanotic melanoma cells were maintained in Dulbecco’s modified Eagles medium supplemented with 10% fetal calf-serum, 2 mM L-glutamine, and 1 mM pyruvate. HT-29 and C-32 cells were maintained in RPMI supplemented with 10% fetal calf serum and 2 mM L-glutamine. C57BL/6 and athymic nu/nu mice were purchased from Charles River Laboratories (Charles River Laboratories, Boston, MA). All animal studies were performed using an IACUC-approved protocol, and the work was performed under the guidelines established by Wake Forest University. The cells were grown to confluency, harvested, washed with phosphate-buffered saline and then were suspended in a 1:1 mixture of phosphate-buffered saline and Matrigel (BD Life Sciences, San Jose, CA) at a concentration of 5 × 10^6 cells/mL. For subcutaneous tumor xenografts, […] in the right flank with 100 μL of a suspension of B16F1 cells, and female athymic nu/nu mice were injected in the right flank with 100 μL of HT-29 cells or C-32 cells.
The biodistribution studies were performed in mice bearing B16F1 (1 h n = 5; 2 h n = 6), C-32 (1 h n = 3; 2 h n = 3), and HT-29 (1 h n = 3; 2 h n = 3) tumor xenografts. The tumor-bearing mice were injected with ~40 μCi of 4-[^18F]FEBZA. A separate group of normal C57BL/6 mice with no tumor implants (1 h n = 3; 2 h n = 3) was also injected with ~40 μCi of 4-[^18F]FEBZA to study the distribution characteristics of 4-[^18F]FEBZA in the absence of tumors. At 1 h and 2 h post-injection, the mice were euthanized, and the tissues of interest were removed, rinsed with PBS, weighed, and counted for radioactivity contents using a γ-counter.

B16F1 tumor = assay: microPET imaging in mice bearing B16F1 tumor; assay type: in vivo
Experimental: as §1

- standardized uptake value (SUV) of tumor from microPET images (HT-29 tumor): 0.25 ± 0.04
- tumor-to-brain tissue ratio ([1]; 1 h): 2.19 ± 0.04
- tumor-to-brain tissue ratio ([1]; 2 h): 2.04 ± 0.19
- tumor-to-muscle ratio ([1]; HT-29 mice group, 2 h): 2.21 ± 0.17
- Adrenals %IA/g tissue (mean ± SD) ([1]; 1 h post-injection): 1.07 ± 0.08 %IA/g tissue
- Blood %IA/g tissue (mean ± SD) ([1]; 1 h post-injection): 2.80 ± 0.26 %IA/g tissue
- Bone %IA/g tissue (mean ± SD) ([1]; 1 h post-injection): 3.83 ± 0.39 %IA/g tissue
- Brain %IA/g tissue (mean ± SD) ([1]; 1 h post-injection): 1.68 ± 0.18 %IA/g tissue
- Heart %IA/g tissue (mean ± SD) ([1]; 1 h post-injection): 2.52 ± 0.12 %IA/g tissue
- Kidneys %IA/g tissue (mean ± SD) ([1]; 1 h post-injection): 2.91 ± 0.24 %IA/g tissue
- Liver %IA/g tissue (mean ± SD) ([1]; 1 h post-injection): 4.84 ± 0.95 %IA/g tissue
- Lung %IA/g tissue (mean ± SD) ([1]; 1 h post-injection): 2.19 ± 0.33 %IA/g tissue
- Muscles %IA/g tissue (mean ± SD) ([1]; 1 h post-injection): 1.61 ± 0.28 %IA/g tissue
- Pancreas %IA/g tissue (mean ± SD) ([1]; 1 h post-injection): 2.41 ± 0.26 %IA/g tissue
- Sm. Intestine %IA/g tissue (mean ± SD) ([1]; 1 h post-injection): 1.98 ± 0.62 %IA/g tissue
- Spleen %IA/g tissue (mean ± SD) ([1]; 1 h post-injection): 2.11 ± 0.25 %IA/g tissue
- Adrenals %IA/g tissue (mean ± SD) ([1]; 2 h post-injection): 0.91 ± 0.19 %IA/g tissue
- Blood %IA/g tissue (mean ± SD) ([1]; 2 h post-injection): 2.29 ± 0.23 %IA/g tissue
- Bone %IA/g tissue (mean ± SD) ([1]; 2 h post-injection): 5.71 ± 1.11 %IA/g tissue
- Brain %IA/g tissue (mean ± SD) ([1]; 2 h post-injection): 1.52 ± 0.28 %IA/g tissue
- Heart %IA/g tissue (mean ± SD) ([1]; 2 h post-injection): 2.19 ± 0.37 %IA/g tissue
- Kidneys %IA/g tissue (mean ± SD) ([1]; 2 h post-injection): 2.08 ± 0.29 %IA/g tissue
- Liver %IA/g tissue (mean ± SD) ([1]; 2 h post-injection): 2.50 ± 0.29 %IA/g tissue
- Lung %IA/g tissue (mean ± SD) ([1]; 2 h post-injection): 1.63 ± 0.16 %IA/g tissue
- Muscles %IA/g tissue (mean ± SD) ([1]; 2 h post-injection): 1.40 ± 0.24 %IA/g tissue
- Pancreas %IA/g tissue (mean ± SD) ([1]; 2 h post-injection): 1.56 ± 0.18 %IA/g tissue
- Sm. Intestine %IA/g tissue (mean ± SD) ([1]; 2 h post-injection): 1.42 ± 0.10 %IA/g tissue
- Spleen %IA/g tissue (mean ± SD) ([1]; 2 h post-injection): 1.51 ± 0.12 %IA/g tissue
- Tumor %IA/g tissue (mean ± SD) ([1]; 1 h post-injection): 3.68 ± 0.47 %IA/g tissue
- Tumor %IA/g tissue (mean ± SD) ([1]; 2 h post-injection): 3.07 ± 0.36 %IA/g tissue
- standardized uptake value (SUV) of tumor from microPET images (B16F1 tumor; B16F1 tumor): 1.53 ± 1.01
- radioactivity level in B16F1 tumor from microPET time activity curve (B16F1 tumor; by 47 min): over 3.5 %IA/g tumor
Compound: CCN(CC)CCNC(=O)c1ccc(OCC[18F])cc1 [4-[^18F]FEBZA, N-(2-diethylaminoethyl) 4-[^18F]fluoroethoxybenzamide]
- total binding to B16F1 cells (B16F1 melanoma cells; 22 °C): 44.45 ± 0.61%
- total binding to B16F1 cells (B16F1 melanoma cells; 37 °C, 1 h incubation): 60.03 ± 0.48%
- visibility of tumor on microPET scans (HT-29 tumor): not visible; also recorded: not discernable
- time post-injection by which tumor is clearly visible on microPET images (B16F1 tumor; B16F1 melanoma tumor): ≤ 10 min
